Key:
[1] = tested on: Bacillus subtilis; experiment: Antibacterial activity against Bacillus subtilis 168 measured after 24 hrs by broth microdilution method; format: functional
[2] = tested on: Escherichia coli; experiment: Antibacterial activity against Escherichia coli MG 1655 measured after 24 hrs by broth microdilution method; format: functional
[3] = tested on: Pseudomonas aeruginosa; experiment: Antibacterial activity against Pseudomonas aeruginosa ATCC 27853 measured after 24 hrs by broth microdilution method; format: functional
[4] = tested on: Micrococcus luteus; experiment: Antibacterial activity against Micrococcus luteus clinical isolate measured after 24 hrs by broth microdilution method; format: functional
[5] = Lipophilicity, logP of the compound; format: physicochemical; settings: octanol/water
[6] = tested on: Staphylococcus aureus; experiment: Antibacterial activity against Staphylococcus aureus ATCC 29213 measured after 24 hrs by broth microdilution method; format: functional
[7] = Genotoxicity in Salmonella typhimurium TA1537 assessed as number of revertant by Ames spot test relative to solvent control; format: toxicity; settings: salmonella enterica subsp. enterica serovar typhimurium
[8] = Genotoxicity in Salmonella typhimurium TA98 assessed as number of revertant by Ames spot test relative to solvent control; format: toxicity; settings: salmonella enterica subsp. enterica serovar typhimurium
[9] = Genotoxicity in Salmonella typhimurium TA100 assessed as number of revertant by Ames spot test relative to solvent control; format: toxicity; settings: salmonella enterica subsp. enterica serovar typhimurium
[10] = Genotoxicity in Salmonella typhimurium TA1535 assessed as number of revertant by Ames spot test relative to solvent control; format: toxicity; settings: salmonella enterica subsp. enterica serovar typhimurium

Structure (SMILES) | MIC [1] | MIC [2] | MIC [3] | MIC [4] | logP [5] | MIC [6] | Ratio [7] | Ratio [8] | Ratio [9] | Ratio [10]
CCCCCCCCCCCC(=O)NCC[N+](C)(C)Cc1cnc(C)c2c1COC(C)(C)O2.[Cl-] | 8 µg/mL | 32 µg/mL | 32 µg/mL | 4 µg/mL | 0.52 | 1 µg/mL | – | – | – | –
CCCCCCCCCCCCCCCCCC(=O)NCCC[N+](C)(C)Cc1cnc(C)c2c1COC(C)(CCC)O2.[Cl-] (centres undefined) | > 64 µg/mL | > 64 µg/mL | > 64 µg/mL | > 64 µg/mL | 4.08 | > 64 µg/mL | – | – | – | –
CCCCCCCCCCCCCCCCCC[N+](C)(C)Cc1cnc(C)c2c1COC(C)(C)O2.[Cl-] | > 64 µg/mL | > 64 µg/mL | > 64 µg/mL | 16 µg/mL | 4.35 | 4 µg/mL | – | – | – | –
Nc1ccc([N+](=O)[O-])cc1N | – | – | – | – | – | – | 3.7 | 4.2 | – | –
CCCCCCCCCCCCCCCC(=O)NCC[N+](C)(C)Cc1cnc(C)c2c1COC(C)(CCC)O2.[Cl-] (centres undefined) | 16 µg/mL | > 64 µg/mL | > 64 µg/mL | 16 µg/mL | 3.13 | 8 µg/mL | – | – | – | –
CCCCCCCCCCCCCC(=O)NCCC[N+](C)(C)Cc1cnc(C)c2c1COC(CCCCCCCC)O2.[Cl-] (centres undefined) | > 64 µg/mL | > 64 µg/mL | > 64 µg/mL | > 64 µg/mL | 4.53 | > 64 µg/mL | – | – | – | –
CCCCCCCCCCCCCCCC(=O)NCCC[N+](C)(C)Cc1cnc(C)c2c1COC(C)(CCC)O2.[Cl-] (centres undefined) | 4 µg/mL | 2 µg/mL | > 64 µg/mL | 2 µg/mL | 3.19 | 2 µg/mL | – | – | – | –
CCCCCCCCCCCCCC(=O)OCCC[N+](C)(C)Cc1cnc(C)c2c1COC(CCC)O2.[Cl-] (centres undefined) | 2 µg/mL | > 64 µg/mL | 4 µg/mL | 1 µg/mL | 3.03 | 2 µg/mL | – | – | – | –
CCCCCCCCCCCCCC(=O)OCCC[N+](C)(C)Cc1cnc(C)c2c1COC(CCCCC)O2.[Cl-] (centres undefined) | 4 µg/mL | > 64 µg/mL | > 64 µg/mL | 8 µg/mL | 3.92 | 8 µg/mL | – | – | – | –
CCCCCCCCCCCCCC(=O)NCCC[N+](C)(C)Cc1cnc(C)c2c1COC(C)(CCC)O2.[Cl-] (centres undefined) | 2 µg/mL | 2 µg/mL | > 64 µg/mL | 2 µg/mL | 2.3 | 2 µg/mL | – | – | – | –
CCCCCCCCCCCCCC(=O)NCCC[N+](C)(C)Cc1nc(C)c2c(c1CO)COC(CCC)O2.[Cl-] (centres undefined) | 1 µg/mL | 64 µg/mL | > 64 µg/mL | 1 µg/mL | 1.62 | 2 µg/mL | – | – | – | –
CCCCCCCCCCCCCC(=O)NCC[N+](C)(C)Cc1nc(C)c2c(c1CO)COC(CCC)O2.[Cl-] (centres undefined) | 2 µg/mL | 64 µg/mL | > 64 µg/mL | 4 µg/mL | 1.56 | 2 µg/mL | – | – | – | –
CCCCCC(=O)NCCC[N+](C)(C)Cc1cnc(C)c2c1COC(CCC)O2.[Cl-] (centres undefined) | > 64 µg/mL | > 64 µg/mL | > 64 µg/mL | > 64 µg/mL | -1.25 | > 64 µg/mL | – | – | – | –
CCCCCCCCCCCCCCCC(=O)NCC[N+](C)(C)Cc1cnc(C)c2c1COC(C)(C)O2.[Cl-] | 4 µg/mL | 32 µg/mL | 2 µg/mL | 1 µg/mL | 2.93 | 1 µg/mL | – | – | – | –
CCCCCCCCCCCCCC(=O)OCCC[N+](C)(C)Cc1cnc(C)c2c1COC(C)(C)O2.[Cl-] | 2 µg/mL | 16 µg/mL | 16 µg/mL | 2 µg/mL | 2.2 | 2 µg/mL | – | – | – | –
CCCCCCCCCCCC(=O)OCC[N+](C)(C)Cc1cnc(C)c2c1COC(CCC)O2.[Cl-] (centres undefined) | 2 µg/mL | 4 µg/mL | 32 µg/mL | 2 µg/mL | 2.08 | 1 µg/mL | – | – | – | –
CCCCCCCCCCCCCCCC(=O)OCC[N+](C)(C)Cc1cnc(C)c2c1COC(CCC)O2.[Cl-] (centres undefined) | 4 µg/mL | > 64 µg/mL | 8 µg/mL | 1 µg/mL | 3.86 | 2 µg/mL | – | – | – | –
CCCCCCCCCCCCCC(=O)OCC[N+](C)(C)Cc1nc(C)c2c(c1CO)COC(CCC)O2.[Cl-] (centres undefined) | 2 µg/mL | 64 µg/mL | > 64 µg/mL | 2 µg/mL | 2.29 | 2 µg/mL | – | – | – | –
CCCCCCCCCCCCCC(=O)NCCC[N+](C)(C)Cc1cnc(C)c2c1COC(CCCCC)O2.[Cl-] (centres undefined) | 1 µg/mL | > 64 µg/mL | > 64 µg/mL | 2 µg/mL | 3.19 | 2 µg/mL | – | – | – | –

Structure (SMILES) | MIC [1] | MIC [2] | MIC [3] | MIC [4] | logP [5] | MIC [6] | Ratio [7] | Ratio [8] | Ratio [9] | Ratio [10]
CCCCCCCC[N+](C)(C)Cc1nc(C)c2c(c1CO)COC(C)(C)O2.[Cl-] | 64 µg/mL | 64 µg/mL | > 64 µg/mL | 64 µg/mL | -0.78 | 64 µg/mL | – | – | – | –
CCCCCCCCCCCCCC(=O)OCCC[N+](C)(C)Cc1nc(C)c2c(c1CO)COC(C)(C)O2.[Cl-] | 0.5 µg/mL | 64 µg/mL | > 64 µg/mL | 2 µg/mL | 1.52 | 1 µg/mL | – | – | – | –
CCCCCCCCCCCCCCCC(=O)OCCC[N+](C)(C)Cc1cnc(C)c2c1COC(C)(C)O2.[Cl-] | 8 µg/mL | > 64 µg/mL | 32 µg/mL | 2 µg/mL | 3.09 | 16 µg/mL | – | – | – | –
CCCCCCCCCCCCCCCCCC(=O)NCC[N+](C)(C)Cc1cnc(C)c2c1COC(C)(CCC)O2.[Cl-] (centres undefined) | > 64 µg/mL | > 64 µg/mL | > 64 µg/mL | > 64 µg/mL | 4.02 | > 64 µg/mL | – | – | – | –
CCCCCCCCCCCC(=O)NCCC[N+](C)(C)Cc1cnc(C)c2c1COC(C)(CCC)O2.[Cl-] (centres undefined) | 4 µg/mL | 8 µg/mL | 32 µg/mL | 4 µg/mL | 1.41 | 1 µg/mL | – | – | – | –
CCCCCCCCCCCCCCCCCC(=O)NCC[N+](C)(C)Cc1cnc(C)c2c1COC(C)(C)O2.[Cl-] | 8 µg/mL | > 64 µg/mL | 8 µg/mL | 2 µg/mL | 3.19 | 4 µg/mL | – | – | – | –
CCCCCCCCCCCCCCCC(=O)NCCC[N+](C)(C)Cc1cnc(C)c2c1COC(C)(C)O2.[Cl-] | 2 µg/mL | > 64 µg/mL | 8 µg/mL | 2 µg/mL | 2.36 | 4 µg/mL | – | – | – | –
CCCCCCCCCCCC(=O)NCCC[N+](C)(C)Cc1cnc(C)c2c1COC(C)(C)O2.[Cl-] | 8 µg/mL | 64 µg/mL | 64 µg/mL | 16 µg/mL | 0.58 | 8 µg/mL | – | – | – | –
COS(C)(=O)=O [METHANESULFONIC ACID METHYL ESTER] | – | – | – | – | – | – | – | – | 2.7 | 30
CCCCCCCCCCCC(=O)OCC[N+](C)(C)Cc1cnc(C)c2c1COC(C)(C)O2.[Cl-] | 4 µg/mL | 16 µg/mL | 64 µg/mL | 4 µg/mL | 1.25 | 4 µg/mL | – | – | – | –
CCCCCCCCCCCCCC(=O)OCCC[N+](C)(C)Cc1cnc(C)c2c1COC(CCCCCCCC)O2.[Cl-] (centres undefined) | > 64 µg/mL | > 64 µg/mL | > 64 µg/mL | > 64 µg/mL | 5.25 | > 64 µg/mL | – | – | – | –
CCCCCC(=O)NCCC[N+](C)(C)Cc1cnc(C)c2c1COC(C)(C)O2.[Cl-] | > 64 µg/mL | > 64 µg/mL | > 64 µg/mL | > 64 µg/mL | -2.09 | > 64 µg/mL | – | – | – | –
CCCCCCCCCC(C)C1OCc2c(C[N+](C)(C)CCCNC(=O)CCCCC)cnc(C)c2O1.[Cl-] (centres undefined) | > 64 µg/mL | > 64 µg/mL | > 64 µg/mL | > 64 µg/mL | 2.34 | > 64 µg/mL | – | – | – | –
CCCCCCCCCCCCCC(=O)NCCC[N+](C)(C)Cc1nc(C)c2c(c1CO)COC(C)(C)O2.[Cl-] | 2 µg/mL | 16 µg/mL | > 64 µg/mL | 1 µg/mL | 0.79 | 2 µg/mL | – | – | – | –
CCCCCCCCCCCCCCCC(=O)OCC[N+](C)(C)Cc1cnc(C)c2c1COC(C)(C)O2.[Cl-] | 1 µg/mL | > 64 µg/mL | 4 µg/mL | 0.5 µg/mL | 3.03 | 0.5 µg/mL | – | – | – | –
CCCCCCCCCCCCCCCC(=O)OCCC[N+](C)(C)Cc1cnc(C)c2c1COC(CCC)O2.[Cl-] (centres undefined) | 32 µg/mL | > 64 µg/mL | 32 µg/mL | 8 µg/mL | 3.92 | 32 µg/mL | – | – | – | –
CCCCCCCCCCCC(=O)OCCC[N+](C)(C)Cc1cnc(C)c2c1COC(C)(C)O2.[Cl-] | 1 µg/mL | 8 µg/mL | 32 µg/mL | 2 µg/mL | 1.31 | 2 µg/mL | – | – | – | –
CCCCCCCCCCCCCC(=O)OCCC[N+](C)(C)Cc1nc(C)c2c(c1CO)COC(CCC)O2.[Cl-] (centres undefined) | 2 µg/mL | 64 µg/mL | > 64 µg/mL | 2 µg/mL | 2.35 | 2 µg/mL | – | – | – | –

— ChEMBL document CHEMBL4819019, “Design, synthesis, antibacterial activity and toxicity of novel quaternary ammonium compounds based on pyridoxine and fatty acids” (Eur J Med Chem, 2021)
